Data taken from ChEMBL document CHEMBL5550186, “Exploring the Potential of Cyclic Peptidyl Antitumor Agents Derived from Natural Macrocyclic Peptide Phakellistatin 13” (J Med Chem, 2024).
Starred links: 1 amine or outer side, 2 acyl side, 3 side chain; linkers in the order of their positions; H or OH if unused. Non-standard residues stand in square brackets, D forms with d. Residues, ends and D or L forms follow the SMILES beside them. *: point of attachment. X1 = O=C1c2ccccc2[C@@](O)(CN(Cc2ccccc2)[*:1])N1CC(=O)[*:2]; X2 = O=C1c2ccccc2[C@](O)(CN(Cc2ccccc2)[*:1])N1CC(=O)[*:2]; Bn = c1ccc(C*)cc1

Key:
HepG2 = test: Antiproliferative activity against human HepG2 cells incubated for 48 hrs by MTT assay; type: functional, cell-based; conditions: HepG2, 48 h
HeLa = test: Antiproliferative activity against human HeLa cells incubated for 48 hrs by MTT assay; type: functional, cell-based
MDA-MB-231 = test: Antiproliferative activity against human MDA-MB-231 cells incubated for 48 hrs by MTT assay; type: functional, cell-based; conditions: MDA-MB-231, 48 h
BEL-7404 tumor cell line = test: Antiproliferative activity against human BEL-7404 tumor cell line incubated for 48 hrs by MTT assay; type: functional, cell-based; conditions: BEL-7404, 48 h
4T1 = test: Antiproliferative activity against mouse 4T1 cells incubated for 48 hrs by MTT assay; type: functional, cell-based; conditions: 4T1, 48 h
[1] = Antiproliferative activity against mouse L929 cells incubated for 48 hrs by MTT assay; type: toxicity, cell-based

Row | Compound | IC50 (HepG2) [µM] | IC50 (HeLa) [µM] | IC50 (MDA-MB-231) [µM] | IC50 (BEL-7404 tumor cell line) [µM] | IC50 (4T1) [µM] | IC50 at 48 h [1] [µM]
1 | CC(C)C[C@@H]1NC(=O)[C@H]([C@@H](C)OCc2ccccc2)NC(=O)[C@@H]2CCCN2C(=O)[C@H](Cc2ccccc2)NC(=O)[C@@H]2CCCN2C(=O)CN2C(=O)c3ccccc3[C@]2(O)CN(Cc2ccccc2)C(=O)[C@H](Cc2c[nH]c3ccccc23)NC1=O (cyclo(FPT(Bn)LW[X2]P)) | 44.3 | 52.8 | 14 | 36.1 | 65.2 | > 100
2 | CC(C)C[C@H]1NC(=O)[C@@H]([C@H](C)OCc2ccccc2)NC(=O)[C@H]2CCCN2C(=O)CN2C(=O)c3ccccc3[C@@]2(O)CN(Cc2ccccc2)C(=O)[C@@H](Cc2ccccc2)NC(=O)[C@H]2CCCN2C(=O)[C@@H](Cc2c[nH]c3ccccc23)NC1=O | 29 | 31 | 17.8 | 25.7 | 42.4 | > 100
3 | CC(C)C[C@@H]1NC(=O)[C@H]([C@@H](C)O)NC(=O)[C@@H]2CCCN2C(=O)CNC(=O)[C@H](Cc2ccccc2)NC(=O)[C@@H]2CCCN2C(=O)[C@H](Cc2c[nH]c3ccccc23)NC1=O [PHAKELLISTATIN 13] (cyclo(FGPTLWP)) | 13.1 | 28.1 | 20.5 | 49.9 | 26.8 | > 100
4 | CC(C)C[C@@H]1NC(=O)[C@H]([C@@H](C)OCc2ccccc2)NC(=O)CN2C(=O)c3ccccc3[C@]2(O)CN(Cc2ccccc2)C(=O)[C@@H]2CCCN2C(=O)[C@H](Cc2ccccc2)NC(=O)[C@@H]2CCCN2C(=O)[C@H](Cc2c[nH]c3ccccc23)NC1=O (cyclo(FP[X2]T(Bn)LWP)) | 32.6 | 50.8 | 26.1 | 38.9 | 65.9 | > 100
5 | CC(C)C[C@@H]1NC(=O)[C@H]([C@@H](C)OCc2ccccc2)NC(=O)[C@@H]2CCCN2C(=O)CN2C(=O)c3ccccc3[C@@]2(O)CN(Cc2ccccc2)C(=O)[C@H](Cc2ccccc2)NC(=O)[C@@H]2CCCN2C(=O)[C@H](Cc2c[nH]c3ccccc23)NC1=O | 24.1 | 28.6 | 15.4 | 30 | 54.7 | > 100
6 | CC(C)C[C@@H]1NC(=O)[C@H]([C@@H](C)OCc2ccccc2)NC(=O)[C@@H]2CCCN2C(=O)[C@H](Cc2ccccc2)NC(=O)[C@@H]2CCCN2C(=O)[C@H](Cc2c[nH]c3ccccc23)NC(=O)CN2C(=O)c3ccccc3[C@@]2(O)CN(Cc2ccccc2)C1=O (cyclo(FPT(Bn)L[X1]WP)) | 31.1 | 35.9 | 14.4 | 28.7 | 67.5 | > 100
7 | CC(C)C[C@@H]1NC(=O)[C@H]([C@@H](C)OCc2ccccc2)NC(=O)[C@@H]2CCCN2C(=O)[C@H](Cc2ccccc2)NC(=O)CN2C(=O)c3ccccc3[C@@]2(O)CN(Cc2ccccc2)C(=O)[C@@H]2CCCN2C(=O)[C@H](Cc2c[nH]c3ccccc23)NC1=O (cyclo(FPT(Bn)LWP[X1])) | 28.9 | 33.9 | 29.3 | 30.2 | 42.6 | > 100
8 | COc1cccc2c1C(=O)c1c(O)c3c(c(O)c1C2=O)C[C@@](O)(C(=O)CO)C[C@@H]3O[C@H]1C[C@H](N)[C@H](O)[C@H](C)O1 [DOXORUBICIN] | 26.6 | 20.9 | – | – | – | > 100
9 | CC(C)C[C@@H]1NC(=O)CN2C(=O)c3ccccc3[C@]2(O)CN(Cc2ccccc2)C(=O)[C@H]([C@@H](C)OCc2ccccc2)NC(=O)[C@@H]2CCCN2C(=O)[C@H](Cc2ccccc2)NC(=O)[C@@H]2CCCN2C(=O)[C@H](Cc2c[nH]c3ccccc23)NC1=O (cyclo(FPT(Bn)[X2]LWP)) | 35.5 | 55.6 | 32.6 | 41.7 | 58.9 | > 100
